Reference: ChEMBL document CHEMBL4630904, “Data for DCP probe BI 207127” (2021)
Each block holds one compound with its values, some of them ahead of it. The source made the active and inactive calls. No cut-off for these calls is given here.

Tests used:
[1] = target: RNA-directed RNA polymerase (Hepacivirus hominis, UniProt O39930); assay: Enzymatic assay with HCV NS5B polymerase D21
[2] = target: 5-hydroxytryptamine receptor 1B (Homo sapiens) (UniProt P28222); assay: 5HT1B(H) Eurofins SafetyScreen44 (BI); conditions: filed as antagonist, Compound concentration 10.0 uM
[3] = target: Cannabinoid receptor 1 (Homo sapiens) (UniProt P21554); assay: CB1(HU)_AGON Eurofins SafetyScreen44 (BI); conditions: filed as agonist; Compound concentration 10.0 uM
[4] = target: Prostaglandin G/H synthase 1 (Homo sapiens) (UniProt P23219); assay: COX-1 Eurofins SafetyScreen44 (BI); conditions: Compound concentration 10.0 uM
[5] = target: Prostaglandin G/H synthase 2 (Homo sapiens) (UniProt P35354); assay: COX-2 Eurofins SafetyScreen44 (BI); conditions: Compound concentration 10.0 uM
[6] = target: Kappa-type opioid receptor (Homo sapiens) (UniProt P41145); assay: KAPPA(KOP)_HU Eurofins SafetyScreen44 (BI); conditions: Compound concentration 10.0 uM
[7] = target: 5-hydroxytryptamine receptor 1A (Homo sapiens) (UniProt P08908); assay: 5HT1A/H Eurofins SafetyScreen44 (BI); conditions: Compound concentration 10.0 uM
[8] = target: 5-hydroxytryptamine receptor 2A (Homo sapiens) (UniProt P28223); assay: 5HT2AH_AGON Eurofins SafetyScreen44 (BI); conditions: filed as agonist, Compound concentration 10.0 uM
[9] = target: 5-hydroxytryptamine receptor 2B (Homo sapiens) (UniProt P41595); assay: 5HT2B/H AG Eurofins SafetyScreen44 (BI); conditions: filed as agonist, Compound concentration 10.0 uM
[10] = target: 5-hydroxytryptamine receptor 3A (Homo sapiens) (UniProt P46098); assay: 5HT3/H Eurofins SafetyScreen44 (BI); conditions: Compound concentration 10.0 uM
[11] = target: Adenosine receptor A2a (Homo sapiens) (UniProt P29274); assay: A2A/H Eurofins SafetyScreen44 (BI); conditions: filed as antagonist, Compound concentration 10.0 uM
[12] = target: Angiotensin-converting enzyme (Homo sapiens) (UniProt P12821); assay: ACE(HU_AMTCH400) Eurofins SafetyScreen44 (BI); conditions: Compound concentration 10.0 uM
[13] = target: Alpha-1A adrenergic receptor (Homo sapiens) (UniProt P35348); assay: ALPHA1AH_ANTAG Eurofins SafetyScreen44 (BI); conditions: filed as antagonist, Compound concentration 10.0 uM
[14] = target: Alpha-2A adrenergic receptor (Homo sapiens) (UniProt P08913); assay: ALPHA2A/HU Eurofins SafetyScreen44 (BI); conditions: Compound concentration 10.0 uM
[15] = target: Androgen receptor (Homo sapiens) (UniProt P10275); assay: ANDROGEN/H Eurofins SafetyScreen44 (BI); conditions: Compound concentration 10.0 uM
[16] = target: Beta-1 adrenergic receptor (Homo sapiens) (UniProt P08588); assay: BETA1/HUM Eurofins SafetyScreen44 (BI); conditions: Compound concentration 10.0 uM
[17] = target: Beta-2 adrenergic receptor (Homo sapiens) (UniProt P07550); assay: BETA2/HUM Eurofins SafetyScreen44 (BI); conditions: filed as antagonist, Compound concentration 10.0 uM
[18] = target: Gamma-aminobutyric acid receptor subunit alpha-1 (Rattus norvegicus) (UniProt P62813); assay: BZD/CENTR/R Eurofins SafetyScreen44 (BI); conditions: Compound concentration 10.0 uM
[19] = target: Voltage-dependent L-type calcium channel subunit alpha-1C (dihydropyridine site) (Rattus norvegicus, UniProt P22002); assay: CA+/DHPSI/R Eurofins SafetyScreen44 (BI); design: mode of action inhibitor; conditions: rat brain, probe [3H](+)PN200-110, compound concentration 10 uM, read-out: % Ctrl
[20] = target: Cannabinoid receptor 2 (Homo sapiens) (UniProt P34972); assay: CB2/PERIPH/H Eurofins SafetyScreen44 (BI); conditions: Compound concentration 10.0 uM
[21] = target: Cholecystokinin receptor type A (Homo sapiens) (UniProt P32238); assay: CCKA/H Eurofins SafetyScreen44 (BI); conditions: Compound concentration 10.0 uM
[22] = target: D(1A) dopamine receptor (Homo sapiens) (UniProt P21728); assay: D1/H Eurofins SafetyScreen44 (BI); conditions: filed as antagonist, Compound concentration 10.0 uM
[23] = target: D(2) dopamine receptor (Homo sapiens) (UniProt P14416); assay: D2SH_AGON Eurofins SafetyScreen44 (BI); conditions: filed as agonist, Compound concentration 10.0 uM
[24] = target: Sodium-dependent dopamine transporter (Homo sapiens) (UniProt Q01959); assay: DATRANS/HUM Eurofins SafetyScreen44 (BI); conditions: Compound concentration 10.0 uM
[25] = target: Delta-type opioid receptor (Homo sapiens) (UniProt P41143); assay: DELTA2/H Eurofins SafetyScreen44 (BI); conditions: Compound concentration 10.0 uM
[26] = target: Endothelin-1 receptor (Homo sapiens) (UniProt P25101); assay: ETA/H Eurofins SafetyScreen44 (BI); conditions: Compound concentration 10.0 uM
[27] = target: Glucocorticoid receptor (Homo sapiens) (UniProt P04150); assay: GCORTICOID/H Eurofins SafetyScreen44 (BI); conditions: Compound concentration 10.0 uM
[28] = target: Histamine H1 receptor (Homo sapiens) (UniProt P35367); assay: H1/PYRIL/HS Eurofins SafetyScreen44 (BI); conditions: Compound concentration 10.0 uM
[29] = target: Histamine H2 receptor (Homo sapiens) (UniProt P25021); assay: H2/APT/HS Eurofins SafetyScreen44 (BI); conditions: filed as antagonist, Compound concentration 10.0 uM
hERG (KCNH2) = hERG (KCNH2) (Homo sapiens, UniProt Q12809); assay: HERG_DOFETILIDE Eurofins SafetyScreen44 (BI); design: mode of action inhibitor; conditions: probe [3H] Dofetilide, compound concentration 10 uM, read-out: % Ctrl
[30] = target: Potassium voltage-gated channel subfamily V member 1 (Rattus norvegicus) (UniProt P97557); assay: K+/VOLT/RA Eurofins SafetyScreen44 (BI); conditions: Compound concentration 10.0 uM
[31] = target: Tyrosine-protein kinase Lck (Homo sapiens) (UniProt P06239); assay: LCK_CE Eurofins SafetyScreen44 (BI); conditions: Compound concentration 10.0 uM
[32] = target: Muscarinic acetylcholine receptor M1 (Homo sapiens) (UniProt P11229); assay: M1/H Eurofins SafetyScreen44 (BI); conditions: Compound concentration 10.0 uM
[33] = target: Muscarinic acetylcholine receptor M2 (Homo sapiens) (UniProt P08172); assay: M2/H Eurofins SafetyScreen44 (BI); conditions: filed as antagonist, Compound concentration 10.0 uM
[34] = target: Muscarinic acetylcholine receptor M3 (Homo sapiens) (UniProt P20309); assay: M3/H Eurofins SafetyScreen44 (BI); conditions: Compound concentration 10.0 uM
[35] = target: MAO-A (amine oxidase [flavin-containing] A) (Rattus norvegicus, UniProt P21396); assay: MAO-A_ANTAG Eurofins SafetyScreen44 (BI); design: mode of action antagonist; scale not given: the % may be the effect or the level left; conditions: compound concentration 10 uM, read-out: % Ctrl
[36] = target: Mu-type opioid receptor (Homo sapiens) (UniProt P35372); assay: MU/H Eurofins SafetyScreen44 (BI); conditions: Compound concentration 10.0 uM
[37] = target: Sodium channel regulatory subunit beta-1 (Rattus norvegicus) (UniProt Q00954); assay: NA+/SITE2/R Eurofins SafetyScreen44 (BI); conditions: Compound concentration 10.0 uM
[38] = target: Sodium-dependent noradrenaline transporter (Homo sapiens) (UniProt P23975); assay: NEUP/H Eurofins SafetyScreen44 (BI); conditions: Compound concentration 10.0 uM
[39] = target: Glutamate receptor ionotropic, NMDA 2A (Rattus norvegicus) (UniProt Q00959); assay: NMDA/R Eurofins SafetyScreen44 (BI); conditions: Compound concentration 10.0 uM
[40] = target: Neuronal acetylcholine receptor; alpha4/beta2 (Homo sapiens) (UniProt P17787+P43681); assay: N_NEURO_A4B2 Eurofins SafetyScreen44 (BI); assay type: protein-complex assay; conditions: filed as agonist, Compound concentration 10.0 uM
[41] = target: cGMP-inhibited 3',5'-cyclic phosphodiesterase 3A (Homo sapiens) (UniProt Q14432); assay: PDE3A Eurofins SafetyScreen44 (BI); conditions: Compound concentration 10.0 uM
[42] = target: 3',5'-cyclic-AMP phosphodiesterase 4D (Homo sapiens) (UniProt Q08499); assay: PDE4D2 Eurofins SafetyScreen44 (BI); conditions: Compound concentration 10.0 uM
[43] = target: Sodium-dependent serotonin transporter (Homo sapiens) (UniProt P31645); assay: SLC6A4/H Eurofins SafetyScreen44 (BI); conditions: filed as antagonist, Compound concentration 10.0 uM
[44] = target: Vasopressin V1a receptor (Homo sapiens) (UniProt P37288); assay: V1A/HUM Eurofins SafetyScreen44 (BI); conditions: Compound concentration 10.0 uM

Chain of RNA-directed RNA polymerase (O39930 whole entry): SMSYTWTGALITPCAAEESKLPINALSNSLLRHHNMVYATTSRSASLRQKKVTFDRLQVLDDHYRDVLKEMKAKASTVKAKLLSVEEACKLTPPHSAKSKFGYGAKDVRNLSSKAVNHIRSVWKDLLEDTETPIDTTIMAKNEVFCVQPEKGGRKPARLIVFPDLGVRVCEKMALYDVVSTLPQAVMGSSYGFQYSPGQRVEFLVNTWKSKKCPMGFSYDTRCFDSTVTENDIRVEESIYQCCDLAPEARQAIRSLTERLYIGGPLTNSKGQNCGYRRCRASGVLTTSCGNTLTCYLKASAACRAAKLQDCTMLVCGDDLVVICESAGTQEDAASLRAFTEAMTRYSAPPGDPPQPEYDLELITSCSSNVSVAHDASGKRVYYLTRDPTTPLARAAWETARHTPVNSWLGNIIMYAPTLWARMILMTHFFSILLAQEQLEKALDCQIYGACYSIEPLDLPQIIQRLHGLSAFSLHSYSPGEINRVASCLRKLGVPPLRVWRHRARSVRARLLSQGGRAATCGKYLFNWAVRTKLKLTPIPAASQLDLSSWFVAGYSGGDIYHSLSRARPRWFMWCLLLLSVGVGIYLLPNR
Chain of Voltage-dependent L-type calcium channel subunit alpha-1C (dihydropyridine site) (P22002 whole entry): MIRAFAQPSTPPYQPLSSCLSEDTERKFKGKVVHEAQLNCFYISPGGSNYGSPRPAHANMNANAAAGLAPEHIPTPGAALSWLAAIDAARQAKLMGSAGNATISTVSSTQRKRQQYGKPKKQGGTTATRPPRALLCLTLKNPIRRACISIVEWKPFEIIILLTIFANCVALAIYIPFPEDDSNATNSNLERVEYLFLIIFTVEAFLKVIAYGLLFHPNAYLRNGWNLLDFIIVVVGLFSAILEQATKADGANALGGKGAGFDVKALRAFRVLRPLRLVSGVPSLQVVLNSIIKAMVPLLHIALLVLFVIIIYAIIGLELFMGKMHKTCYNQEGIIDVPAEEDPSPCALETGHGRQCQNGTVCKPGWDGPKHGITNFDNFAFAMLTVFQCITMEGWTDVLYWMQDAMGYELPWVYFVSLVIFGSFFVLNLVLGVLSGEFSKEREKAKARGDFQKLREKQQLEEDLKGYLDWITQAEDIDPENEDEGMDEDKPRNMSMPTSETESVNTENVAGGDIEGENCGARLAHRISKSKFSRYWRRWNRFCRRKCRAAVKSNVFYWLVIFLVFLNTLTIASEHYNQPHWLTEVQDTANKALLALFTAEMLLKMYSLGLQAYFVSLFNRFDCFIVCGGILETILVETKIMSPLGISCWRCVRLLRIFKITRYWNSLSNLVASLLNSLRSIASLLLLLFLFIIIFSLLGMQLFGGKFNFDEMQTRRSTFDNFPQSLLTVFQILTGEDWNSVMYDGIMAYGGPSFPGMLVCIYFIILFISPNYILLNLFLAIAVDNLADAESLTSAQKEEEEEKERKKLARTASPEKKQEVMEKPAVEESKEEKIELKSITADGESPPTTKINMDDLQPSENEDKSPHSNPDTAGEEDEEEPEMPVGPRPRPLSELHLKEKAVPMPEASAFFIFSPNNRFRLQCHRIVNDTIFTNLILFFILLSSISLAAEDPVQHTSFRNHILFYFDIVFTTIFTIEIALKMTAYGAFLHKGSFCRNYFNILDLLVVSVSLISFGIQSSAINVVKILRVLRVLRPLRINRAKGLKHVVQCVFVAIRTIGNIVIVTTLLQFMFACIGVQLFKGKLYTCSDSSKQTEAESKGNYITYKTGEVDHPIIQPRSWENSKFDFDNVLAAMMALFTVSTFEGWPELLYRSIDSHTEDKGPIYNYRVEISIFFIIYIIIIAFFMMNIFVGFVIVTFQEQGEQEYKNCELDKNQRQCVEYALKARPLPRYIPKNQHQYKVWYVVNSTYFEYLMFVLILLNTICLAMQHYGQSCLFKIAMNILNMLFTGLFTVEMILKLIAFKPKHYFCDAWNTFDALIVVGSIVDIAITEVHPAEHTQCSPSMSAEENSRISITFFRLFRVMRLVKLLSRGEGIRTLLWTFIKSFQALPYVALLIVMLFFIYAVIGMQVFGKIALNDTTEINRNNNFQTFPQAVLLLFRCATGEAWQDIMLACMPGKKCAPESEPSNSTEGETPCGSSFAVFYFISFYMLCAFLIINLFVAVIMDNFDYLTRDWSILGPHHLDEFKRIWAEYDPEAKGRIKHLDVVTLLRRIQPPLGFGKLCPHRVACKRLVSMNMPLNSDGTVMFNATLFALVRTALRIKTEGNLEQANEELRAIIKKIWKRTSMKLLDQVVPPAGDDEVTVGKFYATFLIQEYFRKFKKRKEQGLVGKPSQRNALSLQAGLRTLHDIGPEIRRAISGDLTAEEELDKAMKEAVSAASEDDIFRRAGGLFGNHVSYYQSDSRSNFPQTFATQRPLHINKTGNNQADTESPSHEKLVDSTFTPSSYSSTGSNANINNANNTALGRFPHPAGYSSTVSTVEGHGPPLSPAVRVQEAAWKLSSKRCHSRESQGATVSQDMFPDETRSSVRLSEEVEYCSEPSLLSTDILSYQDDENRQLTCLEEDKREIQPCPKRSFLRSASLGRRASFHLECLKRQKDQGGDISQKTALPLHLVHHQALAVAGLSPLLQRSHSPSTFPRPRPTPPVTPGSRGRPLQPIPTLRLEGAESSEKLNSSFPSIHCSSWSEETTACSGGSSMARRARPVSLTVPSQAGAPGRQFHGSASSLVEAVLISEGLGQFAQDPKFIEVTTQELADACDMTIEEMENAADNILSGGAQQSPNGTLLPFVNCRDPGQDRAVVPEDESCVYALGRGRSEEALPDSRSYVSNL
Chain of Potassium voltage-gated channel subfamily V member 1 (Rattus norvegicus) (P97557 whole entry): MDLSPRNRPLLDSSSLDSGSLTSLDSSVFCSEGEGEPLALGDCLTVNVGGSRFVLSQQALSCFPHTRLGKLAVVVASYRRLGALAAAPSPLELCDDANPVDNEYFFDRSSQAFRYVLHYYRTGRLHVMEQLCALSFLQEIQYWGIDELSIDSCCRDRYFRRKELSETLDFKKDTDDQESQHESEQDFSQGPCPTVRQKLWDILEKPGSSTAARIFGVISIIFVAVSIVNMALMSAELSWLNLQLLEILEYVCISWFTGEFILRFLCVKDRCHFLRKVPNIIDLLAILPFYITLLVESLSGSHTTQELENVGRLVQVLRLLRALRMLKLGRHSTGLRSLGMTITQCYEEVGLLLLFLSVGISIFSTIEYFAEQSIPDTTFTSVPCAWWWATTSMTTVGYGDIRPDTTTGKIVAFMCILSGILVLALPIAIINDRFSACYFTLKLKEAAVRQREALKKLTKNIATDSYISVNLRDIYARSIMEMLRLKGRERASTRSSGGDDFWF
Chain of Beta-1 adrenergic receptor (Homo sapiens) (P08588 whole entry, looked up): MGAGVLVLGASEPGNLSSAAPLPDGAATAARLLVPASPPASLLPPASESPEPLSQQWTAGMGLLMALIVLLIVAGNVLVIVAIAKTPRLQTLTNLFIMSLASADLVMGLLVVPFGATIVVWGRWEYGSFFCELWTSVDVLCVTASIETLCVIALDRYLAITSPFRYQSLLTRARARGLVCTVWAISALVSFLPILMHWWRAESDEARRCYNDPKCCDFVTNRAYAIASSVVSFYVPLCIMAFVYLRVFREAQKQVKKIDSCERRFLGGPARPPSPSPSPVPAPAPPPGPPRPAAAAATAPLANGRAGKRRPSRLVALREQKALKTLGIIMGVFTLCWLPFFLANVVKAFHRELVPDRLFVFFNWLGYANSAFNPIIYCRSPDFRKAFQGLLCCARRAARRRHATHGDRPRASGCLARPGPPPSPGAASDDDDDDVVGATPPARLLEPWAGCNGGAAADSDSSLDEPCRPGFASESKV
Chain of Prostaglandin G/H synthase 1 (Homo sapiens) (P23219 whole entry): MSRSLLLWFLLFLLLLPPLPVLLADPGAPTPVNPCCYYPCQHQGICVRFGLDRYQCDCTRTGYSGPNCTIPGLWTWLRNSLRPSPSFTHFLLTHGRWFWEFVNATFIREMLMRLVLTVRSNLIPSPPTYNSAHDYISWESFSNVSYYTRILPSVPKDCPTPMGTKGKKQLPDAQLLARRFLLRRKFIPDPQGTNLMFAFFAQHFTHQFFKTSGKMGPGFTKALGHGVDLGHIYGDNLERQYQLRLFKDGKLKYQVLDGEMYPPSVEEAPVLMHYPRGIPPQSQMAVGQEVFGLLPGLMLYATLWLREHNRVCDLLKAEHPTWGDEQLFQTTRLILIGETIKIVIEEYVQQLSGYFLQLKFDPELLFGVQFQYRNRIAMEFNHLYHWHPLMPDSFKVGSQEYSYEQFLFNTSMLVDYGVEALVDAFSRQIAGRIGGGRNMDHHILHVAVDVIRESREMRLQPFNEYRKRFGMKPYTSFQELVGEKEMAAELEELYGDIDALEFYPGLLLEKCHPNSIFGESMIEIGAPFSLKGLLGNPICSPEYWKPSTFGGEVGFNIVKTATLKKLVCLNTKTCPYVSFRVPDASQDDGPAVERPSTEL
Chain of Alpha-1A adrenergic receptor (Homo sapiens) (P35348 whole entry): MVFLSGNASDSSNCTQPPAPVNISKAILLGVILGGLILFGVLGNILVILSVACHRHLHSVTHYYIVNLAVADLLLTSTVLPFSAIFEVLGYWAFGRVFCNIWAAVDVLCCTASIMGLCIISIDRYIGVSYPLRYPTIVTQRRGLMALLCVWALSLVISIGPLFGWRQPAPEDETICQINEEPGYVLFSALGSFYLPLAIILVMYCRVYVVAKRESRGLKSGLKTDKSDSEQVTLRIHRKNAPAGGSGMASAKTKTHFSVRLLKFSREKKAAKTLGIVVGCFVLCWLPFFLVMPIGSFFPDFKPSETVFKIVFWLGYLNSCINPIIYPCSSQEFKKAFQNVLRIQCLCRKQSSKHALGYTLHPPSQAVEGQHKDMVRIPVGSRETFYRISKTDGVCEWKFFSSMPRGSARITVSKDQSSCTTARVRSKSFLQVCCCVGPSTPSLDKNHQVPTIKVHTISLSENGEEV
Chain of Sodium channel regulatory subunit beta-1 (Rattus norvegicus) (Q00954 whole entry): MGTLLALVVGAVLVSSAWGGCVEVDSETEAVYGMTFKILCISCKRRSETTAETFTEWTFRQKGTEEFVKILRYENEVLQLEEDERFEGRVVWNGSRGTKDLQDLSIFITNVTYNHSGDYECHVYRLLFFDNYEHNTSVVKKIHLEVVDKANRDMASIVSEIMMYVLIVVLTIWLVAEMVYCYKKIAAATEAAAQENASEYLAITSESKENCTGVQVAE

- IC50 [1]: 19 nM (active)
Structure (SMILES): Cn1c(C2(NC(=O)c3ccc4c(C5CCCC5)c(-c5ncc(Br)cn5)n(C)c4c3)CCC2)nc2ccc(/C=C/C(=O)O)cc21 [DELEOBUVIR]
- residual activity [2]: 97%
- residual activity [3]: 72%
- residual activity [4]: 73%
- residual activity [5]: 85%
- residual activity [6]: 59%
- residual activity [7]: 116%
- residual activity [8]: 67%
- residual activity [9]: 140%
- residual activity [10]: 105%
- residual activity [11]: 133%
- residual activity [12]: 109%
- residual activity [13]: 100%
- residual activity [14]: 93%
- residual activity [15]: 107%
- residual activity [16]: 96%
- residual activity [17]: 100%
- residual activity [18]: 148%
- activity at 10 µM [19]: 105% (not active)
- residual activity [20]: 67%
- residual activity [21]: 12%
- residual activity [22]: 67%
- residual activity [23]: 86%
- residual activity [24]: 66%
- residual activity [25]: 47%
- residual activity [26]: 107%
- residual activity [27]: 81%
- residual activity [28]: 81%
- residual activity [29]: 108%
- activity at 10 µM (hERG (KCNH2)): 68% (not active)
- residual activity [30]: 107%
- residual activity [31]: 117%
- residual activity [32]: 107%
- residual activity [33]: 104%
- residual activity [34]: 101%
- activity at 10 µM [35]: 92% (not active)
- residual activity [36]: 83%
- residual activity [37]: 79%
- residual activity [38]: 76%
- residual activity [39]: 83%
- residual activity [40]: 111%
- residual activity [41]: 140%
- residual activity [42]: 130%
- residual activity [43]: 117%
- residual activity [44]: 97%

- IC50 [1]: > 5000 nM (not active)
Structure (SMILES): Cn1c(C2(NC(=O)c3ccc(NCC4CCCCC4)nc3)CCC2)nc2ccc(/C=C/C(=O)O)cc21 [BI 7656]
